Assay results published in US9453062B2, “Glucose dependent insulinotropic polypeptide analogs, pharmaceutical compositions and use thereof” (Beijing Hanmi Pharmaceutical Co., Ltd., priority 2011, dated 2016).
Where a SMILES comes first, the peptide text is derived from it. Bridges are numbered along the chain shown (N, C = ends). Where no end group is shown, it is not given here. [ ]: non-standard residue; d: D form. The star is where a group is joined. Palmitoyl = CCCCCCCCCCCCCCCC(=O)*; Nle = CCCC[C@H](N)C(=O)O; Aib = CC(C)(N)C(=O)O

Legend:
hGIPR = biological target: T1, hGIPR (Homo sapiens, UniProt P48546); assay: hGIPR-mediated cAMP induction assay in CHO cell line; format: cell-based; settings: for EC50 / GIP Receptor Relative Potency: Table 3; for EC50: CHO hGIPR cells; for GIP Receptor Relative Potency: against native GIP
T1 construct: expressed in transfected cells; host or cells: CHO
T1 sequence (P48546 22-466): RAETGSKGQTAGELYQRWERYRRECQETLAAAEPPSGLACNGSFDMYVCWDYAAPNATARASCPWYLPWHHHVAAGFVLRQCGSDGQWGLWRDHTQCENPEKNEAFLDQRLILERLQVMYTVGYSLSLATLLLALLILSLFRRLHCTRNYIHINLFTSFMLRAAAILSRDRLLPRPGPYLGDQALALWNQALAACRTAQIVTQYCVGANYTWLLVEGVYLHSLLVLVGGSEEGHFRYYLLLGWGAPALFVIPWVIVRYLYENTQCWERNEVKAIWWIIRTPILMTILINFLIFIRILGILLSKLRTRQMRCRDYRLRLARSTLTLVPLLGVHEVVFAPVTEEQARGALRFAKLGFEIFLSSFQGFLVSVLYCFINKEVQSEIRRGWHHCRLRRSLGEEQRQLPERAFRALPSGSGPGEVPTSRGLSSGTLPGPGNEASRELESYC
Text: (§1) The cAMP in the sample or standard competes with horseradish peroxidase (HRP)-labeled cAMP conjugate for binding sites on the anti-cAMP antibodies. In the absence of cAMP, most of the HRP-cAMP conjugate is bound to the antibody. Increasing concentrations of cAMP competitively decrease the amount of bound conjugate, thus decreasing measured HRP activity.
(§2) Assay kit: CatchPoint™ Cyclic-AMP Fluorescent Assay Kit (Molecular Devices, Product # R8088)
Cell lines: CHO hGLP1R, CHO hGIPR
(§3) Cell seeding: CHO hGLP1R or CHO hGIPR cells: 10,000 cells/well/100 uL at 37° C. 5% CO2 overnight.
(§4) Gently aspirate off media and wash the cells with KRBG Buffer, 100 uL/well.
(§5) Incubate the plate for 10 min at room temperature. Then add the KRBG buffer with 3× final concentration of the tested samples (5-foled series diluted from 5,000 nM), 50 uL/well. Incubate the plate at 37° C. 5% CO2 for 30 min.
(§6) Add 50 uL of Lysis buffer to each well and put the plate on a shaker for 10 min.
(§7) Place 40 uL of samples and analyze in appropriate wells. And test the cAMP concentration in each sample by following the manufacture's instruction.
(§8) Detect the fluorescence signal at Ex: 490 nm and Em: 530 nm. Transfer the FI signal to cAMP concentration by the cAMP standard curve. The Dose-response curve and EC50 were obtained by logistic fitting of Origin 8.

hGLP-1R = biological target: T2, hGLP-1R (Homo sapiens, UniProt P43220); assay: hGLP-1R-mediated cAMP induction assay in CHO cell line; format: cell-based; settings: for EC50 / GLP-1 Receptor Relative Potency: Table 3; for EC50: CHO hGLP1R cells; for GLP-1 Receptor Relative Potency: against native GLP-1;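 for all read-outs here: CHO cells expressing human GLP-1R, treated 30 min at 37 °C, intracellular cAMP measured by competitive fluorescent immunoassay and converted via a cAMP standard curve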
T2 construct: expressed in transfected cells; host or cells: CHO
T2 sequence (P43220 24-463): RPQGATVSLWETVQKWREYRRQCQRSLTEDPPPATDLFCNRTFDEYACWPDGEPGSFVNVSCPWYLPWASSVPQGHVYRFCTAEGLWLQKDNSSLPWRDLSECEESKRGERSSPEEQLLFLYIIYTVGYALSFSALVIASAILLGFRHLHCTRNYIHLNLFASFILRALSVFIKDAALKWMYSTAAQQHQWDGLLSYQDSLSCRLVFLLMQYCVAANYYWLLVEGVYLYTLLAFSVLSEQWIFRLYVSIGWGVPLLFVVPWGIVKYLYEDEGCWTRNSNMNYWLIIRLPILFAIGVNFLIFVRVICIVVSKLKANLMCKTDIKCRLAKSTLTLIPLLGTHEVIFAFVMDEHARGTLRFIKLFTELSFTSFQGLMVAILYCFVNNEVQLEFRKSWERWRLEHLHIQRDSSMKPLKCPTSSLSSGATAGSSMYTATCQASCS
Text: as §1, §2
Cell lines: CHO hGLP1R, CHO hGIPR
as §3, §4, §5, §6, §7, §8

Compound | GIPR activation (GIP activity) against native GIP (hGIPR; CHO/hGIPR cell assay) [%] | GLP-1R activation (GLP-1 activity) against native GLP-1 (hGLP-1R) | EC50 (hGIPR) [pM] | GIP Receptor Relative Potency (hGIPR) | EC50 (hGLP-1R) [pM] | GLP-1 Receptor Relative Potency (hGLP-1R)
Tyr-Aib-Glu-Gly-Thr-Phe-Thr-Ser-Asp-Tyr-Ser-Ile-Tyr-Nle-Glu-Lys-Ile-His-Gln-Gln-Asp-Phe-Val-Asn-Trp-Leu-Val-Arg-Gln(NH2) (Y[Aib]EGTFTSDYSIY[Nle]EKIHQQDFVNWLVRQ-NH2) [Analog 021] | 21 | around 5% |  |  |  | 
CC[C@H](C)[C@H](NC(=O)[C@H](Cc1ccccc1)NC(=O)[C@H](CCC(=O)O)NC(=O)[C@H](CCCNC(=N)N)NC(=O)[C@@H](NC(=O)[C@H](C)NC(=O)[C@H](CCC(=O)O)NC(=O)[C@@H]1CCCCNC(=O)CC[C@H](NC(=O)[C@H](CO)NC(=O)[C@H](Cc2ccc(O)cc2)NC(=O)[C@H](CC(=O)O)NC(=O)[C@H](CO)NC(=O)[C@@H](NC(=O)[C@H](Cc2ccccc2)NC(=O)[C@@H](NC(=O)CNC(=O)[C@H](CCC(=O)O)NC(=O)C(C)(C)NC(=O)[C@@H](N)Cc2ccc(O)cc2)[C@@H](C)O)[C@@H](C)O)C(=O)N[C@@H](Cc2ccc(O)cc2)C(=O)N[C@@H](CCSC)C(=O)N[C@@H](CCC(=O)O)C(=O)N1)C(C)C)C(=O)N[C@@H](C)C(=O)N[C@@H](Cc1c[nH]c2ccccc12)C(=O)N[C@@H](CC(C)C)C(=O)N[C@H](C(=O)N[C@@H](CCCCN)C(=O)NCC(=O)NCC(=O)N1CCC[C@H]1C(=O)N[C@@H](CO)C(=O)N[C@@H](CO)C(=O)NCC(=O)N[C@@H](C)C(=O)N1CCC[C@H]1C(=O)N1CCC[C@H]1C(=O)N1CCC[C@H]1C(=O)N[C@@H](CO)C(N)=O)C(C)C [Compound 081] (H-Y[Aib]EGTFTSDYSEYMEKEAVREFIAWLVKGGPSSGAPPPS-NH2; lactam 12-16) |  |  | 44 | 250 | 770 | 124.3
CCCCCCCCCCCCCCCC(=O)N[C@@H](CCC(=O)NCCCC[C@H](NC(=O)[C@@H](NC(=O)[C@H](CC(C)C)NC(=O)[C@H](Cc1c[nH]c2ccccc12)NC(=O)[C@H](C)NC(=O)[C@@H](NC(=O)[C@H](Cc1ccccc1)NC(=O)[C@H](CCC(=O)O)NC(=O)[C@H](CCCNC(=N)N)NC(=O)[C@@H](NC(=O)[C@H](C)NC(=O)[C@H](CCC(=O)O)NC(=O)[C@H](CCCCN)NC(=O)[C@H](CCC(=O)O)NC(=O)[C@H](CCSC)NC(=O)[C@H](Cc1ccc(O)cc1)NC(=O)[C@@H](NC(=O)[C@H](CO)NC(=O)[C@H](Cc1ccc(O)cc1)NC(=O)[C@H](CC(=O)O)NC(=O)[C@H](CO)NC(=O)[C@@H](NC(=O)[C@H](Cc1ccccc1)NC(=O)[C@@H](NC(=O)CNC(=O)[C@H](CCC(=O)O)NC(=O)C(C)(C)NC(=O)[C@@H](N)Cc1ccc(O)cc1)[C@@H](C)O)[C@@H](C)O)[C@@H](C)CC)C(C)C)[C@@H](C)CC)C(C)C)C(=O)NCC(=O)NCC(=O)N1CCC[C@H]1C(=O)N[C@@H](CO)C(=O)N[C@@H](CO)C(=O)NCC(=O)N[C@@H](C)C(=O)N1CCC[C@H]1C(=O)N1CCC[C@H]1C(=O)N1CCC[C@H]1C(=O)N[C@@H](CO)C(N)=O)C(=O)O [Compound 094] |  |  | 850 | 4.7 | 670 | 149.2
Y[Aib]EGTFTSDYSIYMEKEAVREFIAWLVKGGPSSGAPPPSKKKKKK(Palmitoyl)-NH2 [Compound 078] |  |  | 19 | 352.6 | 145 | 754
CC[C@H](C)[C@H](NC(=O)[C@H](Cc1ccccc1)NC(=O)[C@H](CCC(=O)O)NC(=O)[C@H](CCCNC(=N)N)NC(=O)[C@@H](NC(=O)[C@H](C)NC(=O)[C@H](CCC(=O)O)NC(=O)[C@H](CCCCN)NC(=O)[C@H](CCC(=O)O)NC(=O)[C@H](CCSC)NC(=O)[C@H](Cc1ccc(O)cc1)NC(=O)[C@H](CCC(=O)O)NC(=O)[C@H](CO)NC(=O)[C@H](Cc1ccc(O)cc1)NC(=O)[C@H](CC(=O)O)NC(=O)[C@H](CO)NC(=O)[C@@H](NC(=O)[C@H](Cc1ccccc1)NC(=O)[C@@H](NC(=O)CNC(=O)[C@H](CCC(=O)O)NC(=O)C(C)(C)NC(=O)[C@@H](N)Cc1ccc(O)cc1)[C@@H](C)O)[C@@H](C)O)C(C)C)C(=O)N[C@@H](C)C(=O)N[C@@H](Cc1c[nH]c2ccccc12)C(=O)N[C@@H](CC(C)C)C(=O)N[C@H](C(=O)N[C@@H](CCCCN)C(=O)NCC(N)=O)C(C)C [Compound 052-1] (H-Y[Aib]EGTFTSDYSEYMEKEAVREFIAWLVKG-NH2; N-terminus assumed) |  |  | 570 | 36.8 | 2500 | 
CCCCCCCCCCCCCCCC(=O)NCCCC[C@H](NC(=O)[C@@H](NC(=O)[C@H](C)NC(=O)[C@H](CCC(=O)O)NC(=O)[C@H](CCCCN)NC(=O)[C@H](CCC(=O)O)NC(=O)[C@H](CCSC)NC(=O)[C@H](Cc1ccc(O)cc1)NC(=O)[C@@H](NC(=O)[C@H](CO)NC(=O)[C@H](Cc1ccc(O)cc1)NC(=O)[C@H](CC(=O)O)NC(=O)[C@H](CO)NC(=O)[C@@H](NC(=O)[C@H](Cc1ccccc1)NC(=O)[C@@H](NC(=O)CNC(=O)[C@H](CCC(=O)O)NC(=O)C(C)(C)NC(=O)[C@@H](N)Cc1ccc(O)cc1)[C@@H](C)O)[C@@H](C)O)[C@@H](C)CC)C(C)C)C(=O)N[C@@H](CCC(=O)O)C(=O)N[C@@H](Cc1ccccc1)C(=O)N[C@H](C(=O)N[C@@H](C)C(=O)N[C@@H](Cc1c[nH]c2ccccc12)C(=O)N[C@@H](CC(C)C)C(=O)N[C@H](C(=O)N[C@@H](CCCCN)C(=O)NCC(N)=O)C(C)C)[C@@H](C)CC [Compound 067] (H-Y[Aib]EGTFTSDYSIYMEKEAVK(Palmitoyl)EFIAWLVKG-NH2) |  |  |  | 4.6 |  | 13.9
CCCCCCCCCCCCCCCC(=O)NCCCC[C@H](NC(=O)[C@H](CO)NC(=O)[C@@H]1CCCN1C(=O)[C@@H]1CCCN1C(=O)[C@@H]1CCCN1C(=O)[C@H](C)NC(=O)CNC(=O)[C@H](CO)NC(=O)[C@H](CO)NC(=O)[C@@H]1CCCN1C(=O)CNC(=O)CNC(=O)[C@H](CCCCN)NC(=O)[C@@H](NC(=O)[C@H](CC(C)C)NC(=O)[C@H](Cc1c[nH]c2ccccc12)NC(=O)[C@@H]1CCC(=O)NCCCC[C@H](NC(=O)[C@@H](NC(=O)[C@H](C)NC(=O)[C@H](CCC(=O)O)NC(=O)[C@H](CCCCN)NC(=O)[C@H](CCC(=O)O)NC(=O)[C@H](CCSC)NC(=O)[C@H](Cc2ccc(O)cc2)NC(=O)[C@@H](NC(=O)[C@H](CO)NC(=O)[C@H](Cc2ccc(O)cc2)NC(=O)[C@H](CC(=O)O)NC(=O)[C@H](CO)NC(=O)[C@@H](NC(=O)[C@H](Cc2ccccc2)NC(=O)[C@@H](NC(=O)CNC(=O)[C@H](CCC(=O)O)NC(=O)C(C)(C)NC(=O)[C@@H](N)Cc2ccc(O)cc2)[C@@H](C)O)[C@@H](C)O)[C@@H](C)CC)C(C)C)C(=O)N[C@@H](CCC(=O)O)C(=O)N[C@@H](Cc2ccccc2)C(=O)N[C@@H]([C@@H](C)CC)C(=O)N1)C(C)C)C(N)=O [Compound 101] (H-Y[Aib]EGTFTSDYSIYMEKEAVKEFIEWLVKGGPSSGAPPPSK(Palmitoyl)-NH2; lactam 20-24) |  |  | 21 | 328.6 | 56 | 628.6
